Laboratory results published in patent US20180369289A1, “CELL TRANSPLANTATION DEVICE” (THE REGENTS OF THE UNIVERSITY OF CALIFORNIA, priority 2015, published 2018).
“Also recorded” adds a separate entry of the source.

Assays:
[1] = Oxygen release from POGS (dissolved oxygen in media, hypoxia chamber); type: physicochemical
Procedure: (§1) Islets were obtained from male Sprague Dawley Rats (300-350 g) and cultured in vitro overnight at 37° C., 5% CO2. Supplemented CMRL media (Gibco) incubated at 0% O2 overnight in a hypoxia chamber (XVivo, Biospherix) in order to allow media to deoxygenate. Dissolved oxygen levels were measured in the media using dissolved oxygen meter (Oakton D110).
Phosphate-complexed calcium peroxide (PcCPO) was synthesized by mixing calcium peroxide (CPO) with phosphate-buffered saline at 10 mg/mL and incubating at 37° C. overnight. CP or PcCP was dissolved in a 1.5% UPLVM solution and alginate microcapsules were produced as described above. All oxygen concentration assays were performed in a controlled hypoxic chamber at 37° C. 5% CO2 0% ambient O2 to ensure that the data obtained was not confounded by changes in ambient O2 during the experiment.
[…] No islets were used in this experiment. […] When a 1:1 mixture of culture media and PBS was used, unencapsulated CPO (“PGS/PBS”) caused a rapid rise to 20% dissolved oxy gen which was sustained for at least an hour before gradually falling to 10%.

islets [2] = test: Glucose-stimulated insulin release (GSIR) of islets cultured at 0% O2 with CPO; type: cell-based, Sprague Dawley Rats; settings: added to the culture media; p<0.05
Procedure: as §1
(§2) For all viability studies, islets were stained with the following probes to determine viability status based on positive staining: Calcein Blue: live; propidium iodide: dead; and YoPro-1; apoptotic. Islet function was evaluated by looking at glucose stimulated insulin response (GSIR). Islet stimulation index (insulin release at high glucose concentration/insulin release at low glucose concentrations) or SI was calculated after insulin release was quantified using an ELISA.
In order to be useful for diabetes treatment, the isolated islets must retain the ability to produce insulin, not just maintain viability. Thus, the insulin release characteristics of islets cultured at 0% O2 in the presence of CPO was investigated by measuring the glucose-stimulated insulin release (GSIR).

islets [3] = test: Viability of isolated islets under hypoxia with CPO; type: cell-based, Sprague Dawley Rats; settings: 5 mg/ml or 10 mg/ml in culture media or culture media/PBS mixture; p<0.01 relative to 0% O2 without POGS
Procedure: as §1, §2
About 60% and 70% of islets were alive and viable immediately after isolation and after the 24 hour culture at 20% O2, respectively. However, the proportion of live/viable islets dropped to less than 30% after 24 hour culture at 0% O2. Islets cultured for 24 hours at 0% O2 were rescued by 5 mg/ml or 10 mg/ml CPO (“POGS”) in culture media or in the culture media/PBS mixture (p<0.01 relative to 0% O2 without POGS).

[4] = PFC oxygen content and release in culture media; type: physicochemical
Procedure: (§3) Islets from Sprague Dawley rats were isolated, cultured, and assessed as described above. Three concentrations of perfluorodecalin (“PFD”) were added to the culture media: 0.1 ml PFC/ml media (“low PFC”), 0.375 ml PFC/ml media (“medium PFC”), and 0.75 ml PFC/ml media (“high PFC”).
A first experiment was performed under 20% and 0% oxygen culture conditions in the absence of islets to characterize the oxygen release rates of various PFC concentrations and under different PFC-oxygen charging conditions. […] The PFCs were charged for 15 minutes in 40% O2 prior to plating.

islets [5] = test: Effect of PFCs on islet viability in hypoxic culture; type: cell-based, Sprague Dawley rats; settings: for Apoptotic (%) / Dead (%) / Live (%): 0% O2, 24 hours
Procedure: as §2, §3
In a second experiment, islets were plated under 0% or 20% oxygen conditions, as outlined above. Hypoxic islets were supplemented with low, medium, or high PFC levels, charged for 15 minutes in 40% O2 prior to plating. Islet viability was assessed as described above.

macrophages = test: Macrophage attachment to microcapsules cultured with macrophages; type: cell-based; settings: incorporated in 2.5% UPLVM microcapsules with porcine islet cells
Procedure: Porcine islet cells were encapsulated to 2.5% UPLVM microcapsules using the methods described above. One set of microcapsules incorporated CXCL12/SLF-1 to investigate the locally immunosuppressive effects of this immunorepellant. Microcapsules were then cultured in the presence of macrophages.

[6] = medium PFC 0.375 ml PFC/ml media

Question: With `[Ca+2].[O-][O-]` [CPO, calcium peroxide] as the compound, how does the Dissolved oxygen content ([1]; unencapsulated CPO 10 mg/ml in 1:1 culture media and PBS, after gradual fall) read?
Answer: 10%

Question: What about the Dissolved oxygen content ([1]; unencapsulated CPO 10 mg/ml in 1:1 culture media and PBS, rapid rise, sustained at least an hour) of the same compound?
Answer: 20%

Question: What about the Dissolved oxygen content ([1]; unencapsulated CPO 10 mg/ml in culture media, hypoxia chamber, immediate and sustained) of the same compound?
Answer: about 40%

Question: And the “Effect on reduction of GSIR in islets cultured 24 hrs at 0% O2” value (islets [2])?
Answer: significantly reversed this reduction

Question: And the “Viability of islets cultured 24 hours at 0% O2” value (islets [3])?
Answer: rescued

Question: What does the source list for `FC1(F)C(F)(F)C(F)(F)C2(F)C(F)(F)C(F)(F)C(F)(F)C(F)(F)C2(F)C1(F)F` (centres unmarked) [PFC, perfluorodecalin]?
Answer: Time for oxygen content to fall from 40% to the ambient 20% ([4]; charged 15 to 90 minutes in 40% O2, added to culture media at 20% O2): ≤ 10 min; O2 release profile under hypoxic conditions ([4]; charged 15 minutes in 40% O2): prolonged O2 release profile; Apoptotic (%) (islets [5]; high PFC 0.75 ml PFC/ml media): 17.7%; Dead (%) (islets [5]; high PFC 0.75 ml PFC/ml media): 39.9%; Live (%) (islets [5]; high PFC 0.75 ml PFC/ml media): 42.3%; Apoptotic (%) (islets [5]; low PFC 0.1 ml PFC/ml media): 8.73%; Dead (%) (islets [5]; low PFC 0.1 ml PFC/ml media): 42.1%; Live (%) (islets [5]; low PFC 0.1 ml PFC/ml media): 49.2%; Apoptotic (%) (islets [5]; [6]): 0.355%; Dead (%) (islets [5]; [6]): 69.1%; Live (%) (islets [5]; [6]): 30.5%; Islet viability at 24 hours under hypoxic conditions (islets [5]; all PFC concentrations): significantly improved islet viability

Question: For “CXCL12/SLF-1: immunorepellant incorporated into 2.5% UPLVM microcapsules”, which “Macrophage attachment to microcapsule” value (macrophages) is on record?
Answer: no macrophage attachment; also recorded: observed only for the microcapsules lacking CXCL12/SLF-1

Question: Which “Dissolved oxygen content versus uncomplexed CPO” value ([1]; encapsulated, 5 mg/ml) does the source give for “Phosphate-complexed calcium peroxide [PcCPO]” here?
Answer: higher dissolved oxygen content than uncomplexed CPO

Question: What about the “Effect on reduction of GSIR in islets cultured 24 hrs at 0% O2” value (islets [2]) of the same compound?
Answer: significantly reversed this reduction
